Laboratory results: ChEMBL document CHEMBL1140843, “Discovery of new inhibitors of D-alanine:D-alanine ligase by structure-based virtual screening” (J Med Chem, 2008)
≈ marks a conversion by molar mass, not a printed value. Calls of active or inactive are those of the source. No cut-off for these calls is given here.

How the values were obtained:
Escherichia coli [1] = assay: Inhibition of Escherichia coli DdlB at 250 uM preincubated for 15 mins before substrate addition measured after 20 mins
Staphylococcus aureus = assay: Antibacterial activity against Staphylococcus aureus 8325-4 after 16 hrs broth microdilution method; type: functional; settings: 8325-4, 16 h
[2] = Inhibition of Escherichia coli DdlB
Escherichia coli [3] = assay: Antibacterial activity against Escherichia coli SM1411 after 16 hrs broth microdilution method; type: functional
Escherichia coli [4] = assay: Antibacterial activity against Escherichia coli 1411 after 16 hrs broth microdilution method; type: functional

With `COc1ccc2nc3cc(Cl)ccc3c(Nc3ccc(O)c(CN4CCN(C)CC4)c3)c2c1` the Activity (Escherichia coli [1]) was “Active”, the MIC (Staphylococcus aureus) was 32 µg/mL (≈ 69.1 µM) and the Ki [2] was 218 µM. For the same compound, the MIC (Escherichia coli [3]) was 64 µg/mL (≈ 138 µM).

Compound `N[C@@H](C[C@H]1C[C@]1(C(=O)O)c1ccccc1)C(=O)O` has a Ki [2] of 12.5 µM.

Work on `CC(C)(CCl)C(=O)Nc1ccc(C(F)(F)F)cc1` yielded a Ki [2] of 4 µM.

`C/C(O)=C(\C#N)C(=O)Nc1cc(Br)ccc1Br` showed a Ki [2] of 185 µM.

`N[C@@H]1CONC1=O` [CYCLOSERINE] gave a Ki [2] of 22 µM.

With `CS[C@@H](CP(=O)(O)[C@@H](C)N)C(=O)O` the Ki [2] was 4 µM.

With `COc1ccc2c(c1)c1c(C)c3cnccc3c(C)c1n2CCCN` the MIC (Escherichia coli [4]) was 32 µg/mL (≈ 96 µM), the Activity (Escherichia coli [1]) was “Active” and the MIC (Staphylococcus aureus) was 32 µg/mL (≈ 96 µM). It also gave a Ki [2] of 11 µM and an MIC (Escherichia coli [3]) of 8 µg/mL (≈ 24 µM).

`C[C@@H](N)C(=O)NP(=O)(O)O` gave a Ki [2] of 50 µM.

Work on `O=C(/N=N/C(=O)Nc1ccc(Cl)cc1)NCc1cccnc1` yielded a Ki [2] of 33 µM.
